Data from US9469645B2, “Compounds and compositions for the treatment of parasitic diseases” (Novartis AG, priority 2009, dated 2016).
pEC50: −log10 of the molar value. Like-named read-outs stand apart in the source and are kept apart here.

What was measured:
W2 strain = assay: parasite proliferation assay in infected red blood cells (SYBR Green I), W2 strain; type: cell-based
Text: (§1) Compounds of the invention can be assayed to measure their capacity to inhibit proliferation of parasitemia in infected red blood cells. The proliferation is quantified by the addition of SYBR Green I (INVITROGEN)® dye which has a high affinity for double stranded DNA.

3D7 P. falciparum strain = assay: parasite proliferation assay in infected red blood cells (SYBR Green I); type: cell-based, Plasmodium falciparum; settings: 3D7 strain, read-out: EC50 3D7 strain
Text: as §1
The following assay illustrates the invention without in any way limiting the scope of the invention. This parasite proliferation assay measures the increase in parasite DNA content using a DNA intercalating dye, SYBR Green®.
3D7 P. falciparum strain is grown in complete culturing media until parasitemia reaches 3% to 8% with O+ human erythrocytes. 20 μl of screening media is dispensed into 384 well assay plates. […] 10 μl of lysis buffer (saponin, triton-X, EDTA) containing a 10× solution of SYBR Green I® in RPMI media is dispensed into the plates. The plates are lidded and kept at room temperature overnight for the lysis of the infected red blood cells.

[1] = Plasmodium falciparum, 3D7, Erythrocyte

Row | Compound | pEC50 (W2 strain; Erythrocyte) | pEC50 (3D7 P. falciparum strain; [1]) | pEC50 (W2 strain) | pEC50 (3D7 P. falciparum strain)
1 | Cc1ccc(Nc2c(-c3ccc(F)cc3)nc3n2CCN(C(=O)[C@@H]2CCCN2)C3)cc1 [Compound 90] | 6.22 | 6.19 |  | 
2 | Cc1ccc(Nc2c(-c3ccc(F)cc3)nc3n2CCN(C(=O)C2CCCN2)C3)cc1 (stereo not drawn) [Compound 91] | 6.81 | 6.92 |  | 
3 | Cc1ccc(Nc2c(-c3ccc(F)cc3)nc3n2CCN(C(=O)C2CCCNC2)C3)cc1 (stereo not drawn) [Compound 92] |  |  | 5.83 | 5.89
4 | Cc1ccc(Nc2c(-c3ccc(F)cc3)nc3n2CCN(C(=O)C2CCCNC2)C3)cc1 (stereo not drawn) [Compound 93] |  |  | 5.82 | 5.78
5 | CC(C)(N)C(=O)N1CCn2c(nc(-c3ccc(F)cc3)c2Nc2ccc(Cl)c(F)c2)C1 [Compound 94] | 7.28 | 7.40 |  | 
6 | Cc1ccc(Nc2c(-c3ccc(F)cc3)nc3n2CCN(C(=O)C2CCNC2)C3)cc1 (stereo not drawn) [Compound 95] |  |  | 6.15 | 5.81
7 | Cc1ccc(Nc2c(-c3ccc(F)cc3)nc3n2CCN(C(=O)C2CCNC2)C3)cc1 (stereo not drawn) [Compound 96] |  |  | 6.49 | 6.24
8 | Cc1ccc(Nc2c(-c3ccc(F)cc3)nc3n2CCN(C(=O)[C@H](N)c2ccccc2)C3)cc1 [Compound 97] | 7.68 | 7.40 |  | 
9 | Cc1ccc(Nc2c(-c3ccc(F)cc3)nc3n2CCN(C(=O)[C@@H](N)c2ccccc2)C3)cc1 [Compound 98] | 8.10 | 8.00 |  | 
10 | Cc1ccc(Nc2c(-c3ccc(F)cc3)nc3n2CCN(C(=O)C2(O)CC2)C3)cc1 [Compound 99] | 6.18 | 6.09 |  | 
11 | Cc1ccc(Nc2c(-c3ccc(F)cc3)nc3n2CCN(C(=O)CC(C)(C)O)C3)cc1 [Compound 100] | 6.84 | 6.82 |  | 
12 | CC(=O)NCCCC[C@H](N)C(=O)N1CCn2c(nc(-c3ccc(F)cc3)c2Nc2ccc(C)cc2)C1 [Compound 101] | 5.36 | 5.29 |  | 
13 | Cc1ccc(Nc2c(-c3ccc(F)cc3)nc3n2CCN(C(=O)[C@H](N)CCCCNC(=O)C(F)(F)F)C3)cc1 [Compound 102] | 6.37 | 6.19 |  | 
14 | Cc1ccc(Nc2c(-c3ccc(F)cc3)nc3n2CCN(C(=O)C(O)C(C)C)C3)cc1 (stereo not drawn) [Compound 104] | 8.15 | 8.00 |  | 
15 | Cc1ccc(Nc2c(-c3ccc(F)cc3)nc3n2CCN(C(=O)C(O)c2ccc(F)cc2)C3)cc1 (stereo not drawn) [Compound 107] | 8.00 | 8.00 |  | 
16 | Cc1ccc(Nc2c(-c3ccc(F)cc3)nc3n2CCN(C(=O)[C@@H](O)C(C)(C)C)C3)cc1 [Compound 110] | 7.82 | 7.70 |  | 
17 | Cc1ccc(Nc2c(-c3ccc(F)cc3)nc3n2CCN(C(=O)C2(O)CCCC2)C3)cc1 [Compound 116] | 5.82 | 5.79 |  | 
18 | Cc1ccc(Nc2c(-c3ccc(F)cc3)nc3n2CCN(C(=O)C2(O)CCCCC2)C3)cc1 [Compound 117] | 5.93 | 5.90 |  | 
19 | Cc1ccc(Nc2c(-c3ccc(F)cc3)nc3n2CCN(C(=O)[C@@H](O)CCc2ccccc2)C3)cc1 [Compound 118] | 6.87 | 6.82 |  | 
20 | Cc1ccc(Nc2c(-c3ccc(F)cc3)nc3n2CCN(C(=O)CC(C)(O)C(F)(F)F)C3)cc1 (stereo not drawn) [Compound 120] | 6.91 | 6.96 |  | 
21 | Cc1ccc(Nc2c(-c3ccc(F)cc3)nc3n2CCN(C(=O)[C@H](O)C2CCCCC2)C3)cc1 [Compound 121] | 7.48 | 7.70 |  | 
22 | COc1ccc(C(O)C(=O)N2CCn3c(nc(-c4ccc(F)cc4)c3Nc3ccc(C)cc3)C2)cc1 (stereo not drawn) [Compound 122] | 6.81 | 6.74 |  | 
23 | Cc1ccc(Nc2c(-c3ccc(F)cc3)nc3n2CCN(C(=O)C(O)c2cccc(C(F)(F)F)c2)C3)cc1 (stereo not drawn) [Compound 124] | 7.55 | 7.40 |  | 

Row | Compound | pEC50 (W2 strain; Erythrocyte) | pEC50 (3D7 P. falciparum strain; [1]) | pEC50 (W2 strain) | pEC50 (3D7 P. falciparum strain)
24 | COC(C(=O)N1CCn2c(nc(-c3ccc(F)cc3)c2Nc2ccc(C)cc2)C1)c1ccccc1 (stereo not drawn) [Compound 125] | 7.36 | 7.30 |  | 
25 | Cc1ccc(Nc2c(-c3ccc(F)cc3)nc3n2CCN(C(=O)C(O)c2ccc(Br)cc2)C3)cc1 (stereo not drawn) [Compound 126] | 7.10 | 7.00 |  | 
26 | Cc1ccc(Nc2c(-c3ccc(F)cc3)nc3n2CCN(C(=O)C(O)c2ccc(C(F)(F)F)cc2)C3)cc1 (stereo not drawn) [Compound 127] | 7.29 | 7.22 |  | 
27 | COC(C(=O)N1CCn2c(nc(-c3ccc(F)cc3)c2Nc2ccc(C)cc2)C1)(c1ccccc1)C(F)(F)F (stereo not drawn) [Compound 128] | 6.13 | 5.93 |  | 
28 | Cc1ccc(Nc2c(-c3ccc(F)cc3)nc3n2CCN(C(=O)C(O)c2cccc(O)c2)C3)cc1 (stereo not drawn) [Compound 129] | 8.22 | 8.00 |  | 
29 | Cc1ccc(Nc2c(-c3ccc(F)cc3)nc3n2CCN(C(=O)C(O)c2ccccc2Cl)C3)cc1 (stereo not drawn) [Compound 131] | 7.52 | 7.40 |  | 
30 | Cc1ccc(Nc2c(-c3ccc(F)cc3)nc3n2CCN(C(=O)C(O)c2ccc(Br)cc2F)C3)cc1 (stereo not drawn) [Compound 132] | 7.09 | 7.00 |  | 
31 | Cc1ccc(Nc2c(-c3ccc(F)cc3)nc3n2CCN(C(=O)C(O)c2ccc(Cl)cc2)C3)cc1 (stereo not drawn) [Compound 133] | 7.41 | 7.30 |  | 
32 | Cc1ccc(Nc2c(-c3ccc(F)cc3)nc3n2CCN(C(=O)[C@@H](O)CC(C)C)C3)cc1 [Compound 134] | 8.15 | 8.00 |  | 
33 | Cc1ccc(Nc2c(-c3ccc(F)cc3)nc3n2CCN(C(=O)C[C@@H](O)c2ccccc2)C3)cc1 [Compound 135] | 7.48 | 7.30 |  | 
34 | Cc1ccc(Nc2c(-c3ccc(F)cc3)nc3n2CCN(C(=O)[C@H](O)c2ccccc2)C3)cc1 [Compound 137] | 7.92 | 8.00 |  | 
35 | Cc1ccc(Nc2c(-c3ccc(F)cc3)nc3n2CCN(C(=O)[C@@H](O)c2ccccc2)C3)cc1 [Compound 138] | 7.82 | 8.00 |  | 
36 | Cc1ccc(Nc2c(-c3ccc(F)cc3)nc3n2CCN(C(=O)C2(N)CCC2)C3)cc1 [Compound 139] | 6.78 | 6.80 |  | 
37 | Cc1ccc(Nc2c(-c3ccc(F)cc3)nc3n2CCN(C(=O)C2(N)CCCC2)C3)cc1 [Compound 140] | 6.89 | 7.05 |  | 
38 | Cc1ccc(Nc2c(-c3ccc(F)cc3)nc3n2CCN(C(=O)C2(N)CCCCC2)C3)cc1 [Compound 141] | 7.05 | 7.15 |  | 
39 | Cc1ccc(Nc2c(-c3ccc(F)cc3)nc3n2CCN(C(=O)C(N)CC(F)(F)F)C3)cc1 (stereo not drawn) [Compound 142] | 6.92 | 7.10 |  | 
40 | CCC(C)(O)CC(=O)N1CCn2c(nc(-c3ccc(F)cc3)c2Nc2ccc(C)cc2)C1 (stereo not drawn) [Compound 143] | 6.66 | 6.82 |  | 
41 | Cc1ccc(Nc2c(-c3ccc(F)cc3)nc3n2CCN(C(=O)C(N)C(F)(F)F)C3)cc1 (stereo not drawn) [Compound 144] | 7.14 | 7.30 |  | 
42 | Cc1ccc(Nc2c(-c3ccc(F)cc3)nc3n2CCN(C(=O)[C@@H](O)CC2CCCCC2)C3)cc1 [Compound 145] | 7.17 | 7.05 |  | 
43 | Cc1ccc(Nc2c(-c3ccc(F)cc3)nc3n2CCN(C(=O)CNCc2ccccc2)C3)cc1 [Compound 146] | 7.85 | 7.70 |  | 
44 | CCCN(CCC)CC(=O)N1CCn2c(nc(-c3ccc(F)cc3)c2Nc2ccc(C)cc2)C1 [Compound 147] | 5.82 | 5.61 |  | 
45 | CCCN(CCC)[C@@H](C)C(=O)N1CCn2c(nc(-c3ccc(F)cc3)c2Nc2ccc(C)cc2)C1 [Compound 148] | 5.84 | 5.39 |  | 
